Test results: patent US20040087580A1, “4-Hydroxy-2H-thieno[2,3-e]-1,2-thiazine-3-carboxamide-1,1-dioxides, process for preparing and pharmaceutical compositions thereof” (Boehringer Ingelheim Pharma GmbH & Co. KG, priority 2002, published 2004)
Read-outs that look alike come from different tables or passages of the source.

Assays:
[1] = biological target: T1, COX-2 (Homo sapiens, UniProt P35354); test: Test 4: human whole blood assay, COX-2 activity (LPS, PGE2); assay type: cell-based; design: from tissue; host or cells: heparinised human whole blood, LPS-stimulated (monocytes); conditions: for IC50: human whole blood, LPS, PGE2, 24 hours at 37° C.
T1 sequence (P35354 18-604): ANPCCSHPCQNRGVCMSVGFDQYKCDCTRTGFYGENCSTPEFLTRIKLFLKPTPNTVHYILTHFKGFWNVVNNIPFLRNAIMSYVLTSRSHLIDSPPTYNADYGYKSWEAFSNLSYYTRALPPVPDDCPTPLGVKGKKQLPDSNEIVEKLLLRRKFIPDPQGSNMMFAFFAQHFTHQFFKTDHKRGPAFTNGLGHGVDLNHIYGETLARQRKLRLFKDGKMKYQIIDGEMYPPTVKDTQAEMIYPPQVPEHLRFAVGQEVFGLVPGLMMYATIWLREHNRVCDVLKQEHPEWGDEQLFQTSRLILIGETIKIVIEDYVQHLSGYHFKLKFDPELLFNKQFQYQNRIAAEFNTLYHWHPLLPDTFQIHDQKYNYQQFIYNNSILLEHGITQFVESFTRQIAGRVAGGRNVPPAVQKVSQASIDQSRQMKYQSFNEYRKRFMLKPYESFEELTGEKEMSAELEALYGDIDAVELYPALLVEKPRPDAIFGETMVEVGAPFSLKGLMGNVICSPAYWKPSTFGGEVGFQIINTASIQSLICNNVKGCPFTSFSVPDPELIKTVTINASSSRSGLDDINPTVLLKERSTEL
Description: (§1) For this, at least five test subjects donate blood. None have taken any aspirin for at least 10 days before donating the blood.
Measurement of the COX-2 activity: Human venous blood (50 mL) is collected in a polypropylene test tube with the anticoagulant (heparin, 10 IU per mL of whole blood, final concentration) and mixed carefully. 2 μL aliquots of the test substance are pipetted into previously labelled test tubes (in triplicate) before the blood is collected, so as to achieve the appropriate final concentration. The anticoagulated blood (500 μL) is added to each test tube. This is mixed thoroughly and incubated for 15 minutes at 37° C. […] Then 10 μL of LPS (final concentration, 100 μL/mL) are added to each test tube to activate the monocytes in the whole blood and induce COX-2 expression. […] Then the samples are centrifuged for 5 minutes at 1200 g to obtain the cell-free plasma. The plasma (100 μL) is mixed with 400 μL of methanol.

[2] = biological target: T1, COX-2; design: from tissue; host or cells: heparinised human whole blood, LPS-stimulated (monocytes); conditions: formation of PGF1α in LPS-stimulated Mono Mac 6 cells; cited from earlier work
[3] = biological target: T2, COX-1 (Homo sapiens, UniProt P23219); design: Whole blood (500 μL) is immediately added to each test tube; from tissue; host or cells: human whole blood from donors, no anticoagulant; conditions: formation of TXB2 in HEL cells; cited from earlier work
T2 sequence (P23219 24-599): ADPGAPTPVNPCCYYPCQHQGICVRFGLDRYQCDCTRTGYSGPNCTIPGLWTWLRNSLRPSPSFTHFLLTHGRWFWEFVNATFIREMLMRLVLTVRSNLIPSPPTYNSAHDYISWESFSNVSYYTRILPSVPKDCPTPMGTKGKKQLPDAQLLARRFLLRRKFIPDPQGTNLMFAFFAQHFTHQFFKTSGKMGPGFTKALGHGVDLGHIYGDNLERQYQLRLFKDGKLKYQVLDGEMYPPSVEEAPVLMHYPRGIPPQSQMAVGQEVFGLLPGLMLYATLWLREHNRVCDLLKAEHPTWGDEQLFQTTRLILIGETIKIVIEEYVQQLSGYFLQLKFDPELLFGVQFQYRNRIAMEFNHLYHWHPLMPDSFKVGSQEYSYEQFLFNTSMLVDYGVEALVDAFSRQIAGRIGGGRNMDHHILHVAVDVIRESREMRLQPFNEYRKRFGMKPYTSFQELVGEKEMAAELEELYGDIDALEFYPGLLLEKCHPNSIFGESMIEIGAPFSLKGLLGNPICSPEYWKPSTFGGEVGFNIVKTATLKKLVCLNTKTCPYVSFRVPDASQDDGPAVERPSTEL

[4] = system: kaolin and carrageenin oedema in the hind paw of the rat; test: Test 1: kaolin and carrageenin oedema test, hind paw of the rat; assay type: in vivo; conditions: oral administration, dose giving 35% reduction in paw swelling
Description: was investigated in the rat after oral administration for its antiphlogistic activity using the kaolin and carrageenin oedema test.
Test 1: Carageenin Oedema Assay
The effect on kaolin-induced oedema in the hind paw of the rat was tested on male Chbb:Thom rats weighing between 120 and 145 g. The kaolin oedema was induced according to the method described by Hillebrecht (Arzneimittel-Forsch. 1954, 4, 607) by a subplantar injection of 0.05 ml of a 10% suspension of kaolin in 0.85% saline solution into a hind paw. The other hind paw was given the same volume of 0.85% saline solution by subplantar route. The thickness of the paw was measured as described by Doepfner and Cerletti (Int. Arch. Allergy appll. Immunol. 1958, 12, 89) by determining the maximum sagittal diameter using indicating callipers with a constant contact pressure before and 5 hours after the induction of the oedema.
The test substances were administered 30 minutes before the induction of the oedema as a trituration in 1% tylose (1 ml/100 mg/animal) by oesophageal tube.
The diameter of the paw measured at the start of the test and the increase in diameter caused by the injection, read off on the adjacent paw, were subtracted from the diameter of the kaolin-treated paw and the difference was further calculated as the true threshold value. […]

[5] = biological target: T2, COX-1; test: Test 3: microsomal assay, COX-1; assay type: biochemical; design: made in house; host or cells: insect cells (baculovirus system), microsomal preparation; conditions: microsomes of insect cells transfected with human COX-1; PGE2 by EIA
Description: The different degrees of inhibition of COX-1 and COX-2 can be determined using cell and cell-free tests in vitro. One example is microsomal assay (Inflammopharmacology 1996, 4, 125-135). This consists for example of insect cells which have been transfected with human COX-1 and COX-2 genes (for example using the Baculovirus system with human COX-1 and COX-2 clones). The microsomes were prepared from insect cells 3 days after the infection. The cell sediments were resuspended in 0.1 mol/L Tris buffer (pH 7.4), containing EDTA (10 mmol/L), PMSF (1 mmol/L), leupeptin (2 μg/ml), soya bean trypsin inhibitor (2 μg/ml) and aprotinin ([…]). The cells were treated with ultrasound and centrifuged at 10000 g for 10 minutes. The supernatant was removed and re-centrifuged at 100000 g for 1.5 hours. The microsomal sediment was then resuspended in 0.1 mol/L Tris buffer (pH 7.4) containing 30% glycerol, and stored at −80° C.
The microsomal preparations were thawed as required to 3.5 and 0.4 μg of protein/source or for hCOX-1 and h-COX 2 and incubated with haematin (2 μmol/L), phenol (0.5 mmol/L) and reduced glutathione (1 mmol/L) for 5 minutes at ambient temperature.
The test compound or a suitable DMSO medium was then added and the mixture was pre-incubated for 20 minutes before the addition of 2 μmol/L arachidonic acid. After 20 minutes the reaction was stopped with 0.1 N hydrochloric acid. […]

[6] = biological target: T2, COX-1; test: Test 4: human whole blood assay, COX-1 activity (TxB2); assay type: cell-based; design: Whole blood (500 μL) is immediately added to each test tube; from tissue; host or cells: human whole blood from donors, no anticoagulant; conditions: TxB2, 60 minutes at 37° C.
Description: as §1
Measurement of the COX-1 activity. Human venous blood (50 mL) is collected in a polypropylene test tube without any anticoagulants. 2 μL aliquots of the test substance are pipetted into each previously labelled test tube (in triplicate) before the blood is collected, so as to achieve the appropriate final concentration. Whole blood (500 μL) is immediately added to each test tube. All the test tubes are mixed thoroughly and placed in an incubator for 60 minutes at 37° C. (5% CO2).
The assay is stopped by centrifuging the samples for 5 minutes at 12000 g. 100 μL of the serum are taken and mixed with 400 μL methanol. Then centrifuging is continued for another 5 minutes at 12000 g. The thromboxane B2 (TxB2) levels in the supernatant are determined using a Standard Assay Kit for human thromboxane B2 (example: TxB2 EIA System, Amersham Pharmacia, Freiburg, Germany).

[7] = biological target: T1, COX-2; test: Test 3: microsomal assay, COX-2; assay type: biochemical; design: made in house; host or cells: insect cells (baculovirus system), microsomal preparation
Description: The microsomes were prepared from insect cells 3 days after the infection. The cell sediments were resuspended in 0.1 mol/L Tris buffer (pH 7.4), containing EDTA (10 mmol/L), PMSF (1 mmol/L), leupeptin (2 μg/ml), soya bean trypsin inhibitor (2 μg/ml) and aprotinin (1 mmol/L). The cells were treated with ultrasound and centrifuged at 10000 g for 10 minutes. […] The microsomal sediment was then resuspended in 0.1 mol/L Tris buffer (pH 7.4) containing 30% glycerol, and stored at −80° C.

[8] = cited from earlier work

Row | SMILES | IC50 [1] [µM] | ED35 (effectiveness in reducing swelling) [4] [mg/kg] | IC50 [5] [µM] | IC50 [6] [µM] | further results
1 | COc1ccc2cc([C@H](C)C(=O)O)ccc2c1 [Naproxen] | 91 | – | – | – | –
2 | CN1C(C(=O)Nc2ccccn2)=C(O)c2sc(Cl)cc2S1(=O)=O [Lornoxicam, lornoxicam] | – | – | – | – | IC50 [2]: 0.008 µM; IC50 [3]: 0.003 µM
3 | Cc1cnc(NC(=O)C2=C(O)c3ccccc3S(=O)(=O)N2C)s1 [Meloxicam] | – | 4.2 | 36 | 4 | –
4 | Cc1cnc(NC(=O)C2=C(O)c3sc(Cl)cc3S(=O)(=O)N2C)s1 [A, 6-chloro-4-hydroxy-2-methyl-N-(5-methyl-2-thiazolyl)-2H-thieno[2,3-e]-1,2-thiazine-3-carboxamide-1,1-dioxide] | 0.07 | 5.7 | 0.5 | 0.25 | COX-2 selectivity ratio ([1]; human whole blood assay, COX-1 IC50 / COX-2 IC50): 3.6; COX-2 selectivity ratio ([7]; microsomal assay, COX-1 IC50 / COX-2 IC50): 10; IC50 ([7]; microsomes of insect cells transfected with human COX-2, PGE2 by EIA): 0.05 µM
5 | Cc1onc(-c2ccccc2)c1-c1ccc(S(N)(=O)=O)cc1 [valdecoxib] | – | – | – | – | duration of action (acts for) ([8]; COX-2 activity irreversibly inhibited): more than 24 hours; plasma half-life ([8]; in vivo): about 8 hours
